Results on 56 substances are retold here after patent publication US20240368668A1, “SUBSTRATES AND BIOMARKERS OF ADAMTS7” (The Broad Institute, Inc., priority 2021, published 2024).

Square brackets hold non-standard residues; d marks the D form. Ends that are not written are not given here. deamidated = deamidated asparagine; Met(O) = CS(=O)CC[C@H](N)C(=O)O

For the first assay, the system named is mouse ADAMTS7. The assay is described as follows: TMT10 TAILS N-terminomics, SMC1 experiment (Ad-mADAMTS7 WT vs EQ vs Luc, technical replicates, trypsin digest). The assay is classed as cell-based. The following applies: TAILS HC Overlap; SMC1; log fold change mouse ADAMTS7 WT over catalytically inactive EQ. The essentials:
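Full-length mouse ADAMTS7 (WT or E373Q mutant, C-terminal 3xFLAG) or luciferase was transduced via adenovirus, 50 MOI, into HCA-SMC (SMC1, SMC2) or HUVEC. SMC1: pooled media, technical triplicates 400 ug; SMC2: process triplicates 300 ug; HUVEC: process triplicates 200 ug, bFGF2 10 ng/ml.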
Regarding “SERBP1_56 (QAAAQTNSNAAGKQLR; listed as Homo sapiens)”, the “SMC1 logFC.mWT.over.mEQ” value is reported as 4.06.
Consider “SRGN_59 (LLPGESNKIPR; listed as Homo sapiens)”, for which the “SMC1 logFC.mWT.over.mEQ” value is recorded as 4.33.
With “THBS2_290 (LSENLKR; listed as Homo sapiens)”, the “SMC1 logFC.mWT.over.mEQ” value is 4.05.
Same read-out and setting: the figure for “VIM_314 (QESTEYR; listed as Homo sapiens)” is 2.60; for “VIM_333 (LKGTNESLER; listed as Homo sapiens)” it is 4.39.

The assay is the same for the next values; noted with them: TAILS neo-N-terminal peptide abundance; log fold change, Ad-mADAMTS7 WT over EQ.
“CDC37_43 (FQKEKEELDR; listed as Homo sapiens)” yielded a logFC.mWT.over.mEQ of 1.88.
On to “CDH11_467 (HQEAKVPVAIR; listed as Homo sapiens)”, for which the logFC.mWT.over.mEQ is 2.06.
Still for that read-out and setting: the figure for “CLEC11A_50 (HLQEALGLPAGR; listed as Homo sapiens)” is 1.42; for “COL1A2_80 (QYDGKGVGLGPGPMGLMGPR; listed as Homo sapiens)” it is 2.36.
“COL1A2_91 (GPMGLMGPR; listed as Homo sapiens)”: the logFC.mWT.over.mEQ was 1.16.
In the case of “COL1A2_113 (FQGPAGEPGEPGQTGPAGAR; listed as Homo sapiens)”, the logFC.mWT.over.mEQ was 2.27.
Still for that read-out and setting: the figure for “COL1A2_270 (VGNAGPAGPAGPR; listed as Homo sapiens)” is 2.82; for “COL1A2_305 (LTGAKGAAGLPGVAGAPGLPGPR; listed as Homo sapiens)” it is 1.63; for “COL1A2_389 (SAGPPGPPGLR; listed as Homo sapiens)” it is 0.72.
Still for that read-out and setting: the figure for “COL1A2_425 (ASGPAGVR; listed as Homo sapiens)” is 1.34; for “COL1A2_630 (VGTAGPSGPSGLPGER; listed as Homo sapiens)” it is 1.45; for “COL1A2_681 (VGAPGPAGATGDR; listed as Homo sapiens)” it is 1.60.
“COL1A2_731 (AAGQPGAKGER; listed as Homo sapiens)” displayed a logFC.mWT.over.mEQ of 1.03.
The same measure, in the same setting: the figure for “COL1A2_866 (LLGAPGILGLPGSR; listed as Homo sapiens)” is 3.72; for “COL1A2_960 (AGAPGPHGPVGPAGKHGNR; listed as Homo sapiens)” it is 2.91.
As for “COL1A2_1028 (LQGLPGIAGHHGDQGAPGSVGPAGPR; listed as Homo sapiens)”, the logFC.mWT.over.mEQ stood at 1.79.
The same measure, in the same setting: the figure for “COL1A2_1037 (HHGDQGAPGSVGPAGPR; listed as Homo sapiens)” is 3.09; for “COL1A2_1127 (SLRPKDYEVDATLKSLNNQIETLLTPEGSR; listed as Homo sapiens)” it is 2.68; for “COL4A2_71 (YNGPPGLQGFPGLQGR; listed as Homo sapiens)” it is 2.14.
Same read-out and setting: the figure for “COL4A2_172 (YALPKEER; listed as Homo sapiens)” is 5.21; for “COL5A1_544 (SQAQAILQQAR; listed as Homo sapiens)” it is 1.08.
Consider “COL8A1_90 (MKEIQPAPR; listed as Homo sapiens)”, for which the logFC.mWT.over.mEQ was 1.35.
The same measure, in the same setting: the figure for “COL18A1_1505 (LQPPVVQLHDSNPYPR; listed as Homo sapiens)” is 1.42; for “ECM1_43 (YAAPPSPPLSR; listed as Homo sapiens)” it is 0.68.
In the case of “LTBP2_1602 (EAGVHFR; listed as Homo sapiens)”, the logFC.mWT.over.mEQ worked out at 0.99.
Take “MAN2A1_51 (LQEKIDHLER; listed as Homo sapiens)”: the logFC.mWT.over.mEQ is 1.86.
Same read-out and setting: the figure for “MAP1B_1065 (LTTPTKQLGAQSPGR; listed as Homo sapiens)” is 1.30.
On to “MAP4_815 (AVASTGPSSR; listed as Homo sapiens)”, for which the logFC.mWT.over.mEQ was determined as 1.19.
On the same count and under the same terms, the figure for “MAP4_816 (VASTGPSSR; listed as Homo sapiens)” is 1.62; for “MGAT4B_28 (LSGQKGDVVDVYQR; listed as Homo sapiens)” it is 1.66; for “MMP1_24 (LETQEQDVDLVQKYLEKYYNLKN(deamidated)DGR; listed as Homo sapiens)” it is 2.31.
The same measure, in the same setting: the figure for “NID2_291 (HSSVPLGR; listed as Homo sapiens)” is 4.04; for “NID2_374 (VGGPDLKGQVEPWDER; listed as Homo sapiens)” it is 4.94.
On the same count and under the same terms, the figure for “NID2_467 (LEDNIGSNTEVFTYNAANKETCEHNHR; listed as Homo sapiens)” is 2.66; for “NID2_951 (YAYPGAR; listed as Homo sapiens)” it is 3.92; for “NUCB1_228 (LKEVWEELDGLDPNR; listed as Homo sapiens)” it is 1.63.
Consider “NUCB1_317 (FLASTQR; listed as Homo sapiens)”, for which the logFC.mWT.over.mEQ is reported as 4.87.
On the same count and under the same terms, the figure for “NUCB1_389 (LQQAVLHMEQR; listed as Homo sapiens)” is 2.09; for “OS9_54 ([code q]SQSSDVVIVSSKYKQR; also: modified N-terminal Gln; listed as Homo sapiens)” it is 2.81; for “OS9_55 (SQSSDVVIVSSKYKQR; listed as Homo sapiens)” it is 2.29.
Turning to “PAPPA_41 (AAGPATCATR; listed as Homo sapiens)”, the logFC.mWT.over.mEQ is on record as 3.48.
The same measure, in the same setting: the figure for “PDLIM4_104 (IDPEIQDGSPTTSR; listed as Homo sapiens)” is 1.13.
Turning to “POLR3G_88 (LFCSHWSHIPGFK; listed as Homo sapiens)”, the logFC.mWT.over.mEQ was found to be 1.51.
For “POSTN_413 (FSDDTLSMDQR; listed as Homo sapiens)”, the logFC.mWT.over.mEQ is 2.31.
“POSTN_754 (IITGPEIKYTR; listed as Homo sapiens)” registered a logFC.mWT.over.mEQ of 1.68.
Same read-out and setting: the figure for “POSTN_790 (FIEGGDGHLFEDEEIKR; listed as Homo sapiens)” is 1.18.
“POSTN_807 (LLQGDTPVR; listed as Homo sapiens)” had a logFC.mWT.over.mEQ of 1.17.
Substance “PPP1R18_295 (LSETLTR; listed as Homo sapiens)” showed a logFC.mWT.over.mEQ of 3.68.
Substance “PSAP_171 (F[Met(O)]ANIPLLLYPQDGPR; listed as Homo sapiens)” gave a logFC.mWT.over.mEQ of 1.03.
Regarding “PXDN_1341 (SYQEDKPTKKTR; listed as Homo sapiens)”, the logFC.mWT.over.mEQ was 5.26.
The same measure, in the same setting: the figure for “PXDN_1393 (QKTITDLR; listed as Homo sapiens)” is 4.77.
